What was measured:
Type in all cases: cell-based
Details in all cases: fluorescent calcium assay
TRPML1 = TRPML1 (Homo sapiens, UniProt Q9GZU1); test: Fluorescent TRPML1 assay (Fluo4-AM calcium fluorescence in doxycycline-induced HEK-293 Trex cells)
How it was run: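 hTRPML1 (mutated for cell-surface expression) in HEK-293 Trex, dox 0.5 ug/mL o/n; Fluo4-AM 1 uM ~60 min, then ~60 min de-esterification, dark; modified Ringer's + 10 mM Ca. Cmpds 20 uM–6 nM final, half-log, n=3. Ex480/Em540; % activity vs ctrls; EC50 by nonlinear regression.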

TRPML3 = biological target: T1, TRPML3 (Homo sapiens, UniProt Q8TDD5); test: Fluorescent TRPML3 assay (performed as for TRPML1, substituting the TRPML3 subtype)
T1 construct: expressed in transfected cells
T1 sequence (Q8TDD5 1-553): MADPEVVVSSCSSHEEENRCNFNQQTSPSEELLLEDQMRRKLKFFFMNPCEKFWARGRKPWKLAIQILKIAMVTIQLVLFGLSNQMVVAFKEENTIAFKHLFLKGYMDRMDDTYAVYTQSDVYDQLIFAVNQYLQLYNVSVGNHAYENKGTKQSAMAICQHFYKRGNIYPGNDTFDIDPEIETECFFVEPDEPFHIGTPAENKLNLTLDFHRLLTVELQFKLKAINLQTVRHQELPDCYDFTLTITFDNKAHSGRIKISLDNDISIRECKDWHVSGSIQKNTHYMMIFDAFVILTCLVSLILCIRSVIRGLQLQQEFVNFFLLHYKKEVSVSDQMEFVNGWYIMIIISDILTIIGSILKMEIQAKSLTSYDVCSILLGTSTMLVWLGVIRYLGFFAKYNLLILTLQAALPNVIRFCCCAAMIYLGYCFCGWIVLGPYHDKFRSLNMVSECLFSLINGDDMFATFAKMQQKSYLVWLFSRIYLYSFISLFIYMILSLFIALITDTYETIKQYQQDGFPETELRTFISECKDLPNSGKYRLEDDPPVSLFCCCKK
How it was run: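 HEK-293 Trex, dox-induced (0.5 ug/mL), mutated for surface expression. Fluo4-AM 1 micromolar load ~60 min, dark; buffer modified Ringer's, 10 mM Ca. Cpds 20 micromolar–6 nanomolar final, half-log, n=3. Read ex 480/em 540; % activity vs controls; EC50 nonlinear fit.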

TRPML2 = biological target: T2, TRPML2 (Homo sapiens, UniProt Q8IZK6); test: Fluorescent TRPML2 assay (performed as for TRPML1, substituting the TRPML2 subtype)
T2 construct: expressed in transfected cells
T2 sequence (Q8IZK6 1-566): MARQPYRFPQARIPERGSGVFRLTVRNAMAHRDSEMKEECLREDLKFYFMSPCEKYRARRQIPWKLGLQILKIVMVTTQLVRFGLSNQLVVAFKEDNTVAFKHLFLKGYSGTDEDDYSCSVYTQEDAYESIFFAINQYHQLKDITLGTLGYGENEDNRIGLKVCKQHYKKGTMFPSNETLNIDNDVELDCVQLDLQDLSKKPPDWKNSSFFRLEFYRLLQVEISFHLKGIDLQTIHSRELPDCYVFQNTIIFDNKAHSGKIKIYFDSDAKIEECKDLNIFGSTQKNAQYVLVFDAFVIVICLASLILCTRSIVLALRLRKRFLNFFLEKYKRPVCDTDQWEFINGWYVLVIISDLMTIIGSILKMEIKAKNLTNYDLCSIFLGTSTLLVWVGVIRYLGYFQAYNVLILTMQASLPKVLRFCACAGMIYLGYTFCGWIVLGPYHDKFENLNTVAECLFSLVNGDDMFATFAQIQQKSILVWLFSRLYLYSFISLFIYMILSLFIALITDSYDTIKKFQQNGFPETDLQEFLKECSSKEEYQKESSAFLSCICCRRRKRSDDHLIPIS
Experimental: HEK-293 Trex cells were stably transfected with a construct consisting of the human coding sequence for TRPML1 cloned into the […] plasmid pCDNA5 T/O. Mutations were introduced into the TRPML1 sequence to facilitate expression on the cell surface (Silvia Vergarajauregui, Rosa Puertollano, Traffic. 2006 March; 7(3): 337-353). Briefly, the cells are cultured in 150 mm round tissue culture dishes containing 20 mL of media. The day before the assay the cells are rinsed with DPBS-Ca—Mg and then treated briefly with Trypsin-EDTA. The Trypsin-EDTA is diluted with growth media, and cells are counted. 38×10^6 cells are re-plated into 150 mm round tissue culture dishes in media containing 0.5 ug/mL doxycycline to induce expression of hTRPML1.
The day of the experiment cells are lifted from the plates as above and collected by centrifugation. The cells are then suspended in dye loading buffer consisting of Ringer's solution supplemented with 0.1% Pluronic Acid and 1 micromolar Fluo4-AM dye. Cells are loaded for ˜60 minutes in the dark with occasional mixing. The cells are collected by centrifugation, the loading media aspirated, and the cells resuspended in 25 mL Ringer's solution and incubated ˜60 minutes in the dark. The cells are again collected by centrifugation, rinsed in Ringer's Solution and resuspended to […] in modified Ringer's solution containing 10 mM calcium.
Compounds are dissolved to a concentration of 10 millimolar with DMSO. Compound plates are created by dispensing compounds into 384 well black wall clear bottom plates (Greiner 781091). Positive and negative controls are included on each plate. Typically, different amounts of each compound are tested ranging from 100 nanoMoles (20 micromolar final concentration) decreasing in half-log steps to 31 picoMoles (6 nanomolar final concentration). Each concentration is typically tested in triplicate.
50 microliters of dye-loaded cells are dispensed into each well of the compound assay plate created above. The fluorescence in each well is then determined with an excitation wavelength of 480 nm and an emission wavelength of 540 nm using either a Molecular Devices SpectraMax multimode plate reader or a Hamamatsu FDSS/uCell plate imager.
The resulting fluorescence for each well is exported as an ascii file and loaded into our LIMS for analysis. The percent activity of each compound at each concentration is determined by comparison to the positive and negative control wells included in each plate.
TRPML2 and TRPML3 Assays Assays for TRPML2 and TRPML3 were performed as above for TRPML1, by substituting the appropriate TRPML2 or TRPML3 subtype for the TRPML1.
EC50 values were calculated using a non-linear regression of Prism. In the table, “A” indicates an EC50 of less than 100 nM, “B” indicates an EC50 range from 100 nM to 500 nM; “C” indicates an EC50 range from 500 nM to 2 μM; and “D” indicates an EC50 greater than 2 μM.

Chain of TRPML1 (Q9GZU1 whole entry L15A/L16A/L577A/L578A, form open): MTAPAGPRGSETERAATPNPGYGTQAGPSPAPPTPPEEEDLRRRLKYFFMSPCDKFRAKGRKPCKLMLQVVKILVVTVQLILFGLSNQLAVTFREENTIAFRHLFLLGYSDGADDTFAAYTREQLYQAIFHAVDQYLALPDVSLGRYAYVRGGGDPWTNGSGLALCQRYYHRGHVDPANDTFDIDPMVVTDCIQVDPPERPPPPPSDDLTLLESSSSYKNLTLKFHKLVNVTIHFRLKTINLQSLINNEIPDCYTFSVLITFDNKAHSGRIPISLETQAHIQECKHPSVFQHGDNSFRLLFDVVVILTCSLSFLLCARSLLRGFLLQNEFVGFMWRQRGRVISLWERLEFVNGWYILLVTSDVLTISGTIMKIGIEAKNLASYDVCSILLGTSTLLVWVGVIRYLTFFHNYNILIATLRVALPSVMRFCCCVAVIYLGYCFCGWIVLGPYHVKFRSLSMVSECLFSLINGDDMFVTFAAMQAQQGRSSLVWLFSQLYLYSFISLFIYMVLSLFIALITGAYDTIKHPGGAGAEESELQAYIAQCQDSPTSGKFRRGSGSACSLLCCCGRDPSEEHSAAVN

| EC50 (TRPML1) | EC50 (TRPML3) | EC50 (TRPML2) | SMILES |
| --- | --- | --- | --- |
| < 100 nM | < 100 nM | < 100 nM | C[C@H]1CN(C(=O)OC(C)(C)C)CCN1c1ncnc2c1c(C1CC1)cn2-c1ccc(Cl)cc1 [Compound 114, tert-butyl (S)-4-(7-(4-chlorophenyl)-5-cyclopropyl-7H-pyrrolo[2,3-d]pyrimidin-4-yl)-3-methylpiperazine-1-carboxylate] |
| 100 to 500 nM | 100 to 500 nM | 500 to 2000 nM | C[C@H]1CN(C(=O)OC(C)(C)C)CCN1c1ncnc2c1c(-c1ccncn1)cn2-c1cccc(Cl)c1 [Compound 115, tert-butyl (S)-4-(7-(3-chlorophenyl)-5-(pyrimidin-4-yl)-7H-pyrrolo[2,3-d]pyrimidin-4-yl)-3-methylpiperazine-1-carboxylate] |
| 100 to 500 nM | 100 to 500 nM | 500 to 2000 nM | C[C@H]1CN(C(=O)OC(C)(C)C)CCN1c1ncnc2c1c(-c1ncccn1)cn2-c1cccc(Cl)c1 [Compound 116, tert-butyl (S)-4-(7-(3-chlorophenyl)-5-(pyrimidin-2-yl)-7H-pyrrolo[2,3-d]pyrimidin-4-yl)-3-methylpiperazine-1-carboxylate] |
| < 100 nM | < 100 nM | 100 to 500 nM | C[C@@H]1CN(c2ncnc3c2c(-c2ccccn2)cn3-c2cccc(Cl)c2)[C@@H](C)CN1C(=O)OC(C)(C)C [Compound 117, tert-butyl (2R,5S)-4-(7-(3-chlorophenyl)-5-(pyridin-2-yl)-7H-pyrrolo[2,3-d]pyrimidin-4-yl)-2,5-dimethylpiperazine-1-carboxylate] |
| 100 to 500 nM | 500 to 2000 nM | > 2000 nM | CCOC(=O)N1C[C@H](C)N(c2ncnc3c2c(-c2ccccn2)cn3-c2cccc(Cl)c2)C[C@H]1C [Compound 118, Ethyl (2R,5S)-4-(7-(3-chlorophenyl)-5-(pyridin-2-yl)-7H-pyrrolo[2,3-d]pyrimidin-4-yl)-2,5-dimethylpiperazine-1-carboxylate] |
| < 100 nM | < 100 nM | 100 to 500 nM | C[C@H]1CN(C(=O)OC(C)(C)C)CCN1c1ncnc2c1c(-c1ccccn1)cn2-c1cccc(Cl)c1 [Compound 119, tert-butyl (S)-4-(7-(3-chlorophenyl)-5-(pyridin-2-yl)-7H-pyrrolo[2,3-d]pyrimidin-4-yl)-3-methylpiperazine-1-carboxylate] |
| 100 to 500 nM | < 100 nM | 100 to 500 nM | C[C@H]1CN(C(=O)OC(C)(C)C)CCN1c1ncnc2c1c(-c1cnccn1)cn2-c1cccc(Cl)c1 [Compound 120, tert-butyl (S)-4-(7-(3-chlorophenyl)-5-(pyrazin-2-yl)-7H-pyrrolo[2,3-d]pyrimidin-4-yl)-3-methylpiperazine-1-carboxylate] |
| < 100 nM | < 100 nM | 100 to 500 nM | C[C@H]1CN(C(=O)OC(C)(C)C(F)(F)F)CCN1c1ncnc2c1c(-c1ccccn1)cn2-c1cccc(Cl)c1 [Compound 121, 1,1,1-trifluoro-2-methylpropan-2-yl (S)-4-(7-(3-chlorophenyl)-5-(pyridin-2-yl)-7H-pyrrolo[2,3-d]pyrimidin-4-yl)-3-methylpiperazine-1-carboxylate] |
| < 100 nM | < 100 nM | > 2000 nM | CC(C)(C)OC(=O)N1CCN(c2ncnc3c2c(C2CC2)cn3-c2cc(Cl)cc(Cl)c2)CC1 [Compound 122, tert-butyl 4-(5-cyclopropyl-7-(3,5-dichlorophenyl)-7H-pyrrolo[2,3-d]pyrimidin-4-yl)piperazine-1-carboxylate] |
| < 100 nM | < 100 nM | 100 to 500 nM | C[C@@H]1CN(c2ncnc3c2c(C2CC2)cn3-c2cc(F)cc(Cl)c2)CCN1C(=O)OC(C)(C)C [Compound 123, tert-butyl (R)-4-(7-(3-chloro-5-fluorophenyl)-5-cyclopropyl-7H-pyrrolo[2,3-d]pyrimidin-4-yl)-2-methylpiperazine-1-carboxylate] |
| < 100 nM | 100 to 500 nM | 500 to 2000 nM | C[C@@H]1CN(c2ncnc3c2c(-c2cnccn2)cn3-c2cccc(Cl)c2)[C@@H](C)CN1C(=O)OC(C)(C)C [Compound 124, tert-butyl (2R,5S)-4-(7-(3-chlorophenyl)-5-(pyrazin-2-yl)-7H-pyrrolo[2,3-d]pyrimidin-4-yl)-2,5-dimethylpiperazine-1-carboxylate] |
| < 100 nM | < 100 nM | 100 to 500 nM | C[C@H]1CN(C(=O)OC(C)(C)C)CCN1c1ncnc2c1c(C1CC1)cn2-c1cccc(F)c1 [Compound 127, tert-butyl (S)-4-(5-cyclopropyl-7-(3-fluorophenyl)-7H-pyrrolo[2,3-d]pyrimidin-4-yl)-3-methylpiperazine-1-carboxylate] |
| < 100 nM | < 100 nM | 100 to 500 nM | C[C@H]1CN(C(=O)OC(C)(C)C)CCN1c1ncnc2c1c(C1CC1)cn2-c1ccc(F)cc1 [Compound 128, tert-butyl (S)-4-(5-cyclopropyl-7-(4-fluorophenyl)-7H-pyrrolo[2,3-d]pyrimidin-4-yl)-3-methylpiperazine-1-carboxylate] |
| < 100 nM | < 100 nM | 100 to 500 nM | C[C@H]1CN(C(=O)OC(C)(C)C)CCN1c1ncnc2c1c(C1CC1)cn2-c1cc(Cl)cc(Cl)c1 [Compound 129, tert-butyl (S)-4-(5-cyclopropyl-7-(3,5-dichlorophenyl)-7H-pyrrolo[2,3-d]pyrimidin-4-yl)-3-methylpiperazine-1-carboxylate] |
| < 100 nM | < 100 nM | 100 to 500 nM | C[C@@H]1CN(c2ncnc3c2c(C2CC2)cn3-c2cccc(Cl)c2)[C@@H](C)CN1C(=O)OC(C)(C)C [Compound 130, tert-butyl (2R,5S)-4-(7-(3-chlorophenyl)-5-cyclopropyl-7H-pyrrolo[2,3-d]pyrimidin-4-yl)-2,5-dimethylpiperazine-1-carboxylate] |
